From ChEMBL document CHEMBL1201862, “PubChem BioAssay data set” (2004)
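Five concentrations, 48 hours, 96-well plates. GI50 = concentration required for 50% inhibition of growth.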 Activity calls are given as the source filed them. Cut-off read from the data, not from the text of the source: active = GI50 up to about 1.1 µM and inactive = higher.

Assays:
Experiment in all cases: DTP human tumour cell line panel, 48 h
[1] = system: MOLT-4
[2] = system: OVCAR-3
[3] = system: NCI-H23
[4] = system: HOP-62
[5] = system: ACHN
[6] = system: CCRF-CEM
[7] = system: RPMI-8226
[8] = system: SK-MEL-2
[9] = system: Malme-3M
[10] = system: OVCAR-4
[11] = system: HCC 2998
[12] = system: SN12C
[13] = system: NCI-H522
[14] = system: KM12
[15] = system: TK-10
[16] = system: SF-295
[17] = system: NCI-H226
[18] = system: SR
[19] = system: HT-29
[20] = system: A498

Measured: GI50

COc1cc(OC)cc(N2CCC(c3c(N)nc(N)nc3Cl)CC2)c1
inactive: [1] 31.5 µM | [2] 83.9 µM | [3] > 100 µM | [4] 62.2 µM | [5] 70.5 µM | [6] 47.1 µM | [7] 16.9 µM | [8] 92.3 µM | [9] 31 µM | [10] 91.8 µM | [11] 67.5 µM | [12] > 100 µM | [13] 41.3 µM | [14] 66.4 µM | [15] > 100 µM | [16] 83 µM

CCOC(=O)N1CCN(Cc2cc(=O)n3cc(C)ccc3n2)CC1
inactive: [1] > 100 µM | [2] > 100 µM | [3] > 100 µM | [4] > 100 µM | [17] > 100 µM | [5] > 100 µM | [6] > 100 µM | [7] > 100 µM | [8] > 100 µM | [9] > 100 µM | [18] > 100 µM | [10] > 100 µM | [11] > 100 µM | [12] > 100 µM | [13] > 100 µM | [14] > 100 µM | [15] > 100 µM | [19] > 100 µM | [16] > 100 µM

CC1CC(c2ccc([N+](=O)[O-])cc2)=Nc2ccccc2[S+]1[O-] (centres undefined)
inactive: [1] 24.8 µM | [3] 17.6 µM | [4] 26.1 µM | [17] 29.2 µM | [5] 21.3 µM | [6] 11 µM | [7] 4.58 µM | [20] 18.2 µM | [8] 44.5 µM | [18] 22.5 µM | [10] 21.6 µM | [11] 21.8 µM | [12] 37.6 µM | [13] 12.2 µM | [14] 13 µM | [15] 27 µM | [19] 12.9 µM | [16] 21.4 µM

NC(=O)c1ncn2c1CNC(=O)C2
inactive: [1] > 100 µM | [2] > 100 µM | [3] > 100 µM | [4] > 100 µM | [17] > 100 µM | [5] > 100 µM | [6] > 100 µM | [20] > 100 µM | [8] > 100 µM | [9] > 100 µM | [18] > 100 µM | [10] > 100 µM | [11] > 100 µM | [12] > 100 µM | [13] > 100 µM | [14] > 100 µM | [15] > 100 µM | [19] > 100 µM | [16] > 100 µM

CCCCCCNC(=O)C(C)C1CCC2(C)C=CC(=O)C(C)=C2C1O (centres undefined)
inactive: [1] > 75.2 µM | [2] > 100 µM | [3] > 94 µM | [4] > 100 µM | [17] > 100 µM | [6] > 100 µM | [7] > 70.3 µM | [20] > 100 µM | [8] > 100 µM | [10] 96.8 µM | [11] > 100 µM | [12] > 100 µM | [13] 86.3 µM | [14] > 88.1 µM | [19] > 100 µM | [16] > 100 µM

Nc1nc(Cl)cc(NCCCNc2cc(Cl)nc(N)n2)n1
inactive: [1] > 100 µM | [2] > 100 µM | [3] > 100 µM | [4] > 100 µM | [17] > 100 µM | [6] > 100 µM | [7] > 100 µM | [20] > 100 µM | [8] > 100 µM | [9] > 100 µM | [18] > 100 µM | [10] > 100 µM | [11] > 100 µM | [12] > 100 µM | [14] > 100 µM | [15] > 100 µM | [19] > 100 µM | [16] > 100 µM

Cc1cc2c(=O)c3ccccc3[nH]c2c(C(N)=O)c1C
inactive: [1] > 100 µM | [2] > 100 µM | [3] > 100 µM | [17] > 100 µM | [5] > 100 µM | [6] > 100 µM | [7] > 100 µM | [8] > 100 µM | [9] > 100 µM | [10] > 100 µM | [12] > 100 µM | [13] > 100 µM | [14] > 100 µM | [15] > 100 µM | [19] > 100 µM | [16] > 100 µM

CC1(C)C(=O)OC(n2cc(F)c(=O)[nH]c2=O)C1=O (centres undefined)
inactive: [1] > 100 µM | [2] > 100 µM | [3] > 100 µM | [4] 65.9 µM | [17] > 100 µM | [5] > 100 µM | [6] > 100 µM | [7] > 100 µM | [20] > 100 µM | [8] > 100 µM | [9] > 100 µM | [10] > 100 µM | [11] 46.6 µM | [12] > 100 µM | [13] > 100 µM | [14] > 100 µM | [15] > 100 µM | [19] > 100 µM | [16] > 100 µM

Cc1c2ccccc2c(CO)c2cc(F)c3ccccc3c12
inactive: [1] 14.8 µM | [2] 26.9 µM | [3] 36.5 µM | [4] 31.5 µM | [17] 42 µM | [5] 19.5 µM | [6] 22.3 µM | [20] 38.2 µM | [8] 18.5 µM | [9] 53.8 µM | [18] 27 µM | [10] 23.4 µM | [11] 50.6 µM | [12] 17.3 µM | [13] 12.9 µM | [14] 18.8 µM | [15] 37.4 µM | [19] 19.1 µM | [16] 21.9 µM

COc1ccc(/C=C/C(=O)C(C)(C)C)cc1OC
inactive: [1] 59.6 µM | [2] 64.7 µM | [3] 41.5 µM | [4] > 100 µM | [5] > 100 µM | [6] 36.2 µM | [7] 47.4 µM | [20] > 100 µM | [10] 79.6 µM | [11] > 100 µM | [12] 65.8 µM | [13] 34.8 µM | [14] 43.9 µM | [15] > 100 µM | [19] 62.5 µM | [16] > 100 µM

Cc1coc2c1C[C@@]1(C)[C@H](CCC[C@@H]1C)[C@H]2O
inactive: [1] 18 µM | [2] 22.6 µM | [3] 36.8 µM | [4] 29.4 µM | [17] 15.5 µM | [5] 24.7 µM | [6] 28.4 µM | [7] 18.1 µM | [9] 18.8 µM | [18] 14.6 µM | [10] 28.1 µM | [11] 11.4 µM | [12] 15.6 µM | [13] 22.4 µM | [14] > 100 µM | [15] 54 µM | [19] 33.3 µM | [16] 30.9 µM
